Legend:
MAO B = target: T1, MAO B (Homo sapiens, UniProt P27338); test: MAO B inhibition, kynuramine fluorescence assay; type: biochemical; settings: for Inhibition of MAO B, % inhibition @ conc.: @ 500 µM
T1 sequence (P27338 1-520): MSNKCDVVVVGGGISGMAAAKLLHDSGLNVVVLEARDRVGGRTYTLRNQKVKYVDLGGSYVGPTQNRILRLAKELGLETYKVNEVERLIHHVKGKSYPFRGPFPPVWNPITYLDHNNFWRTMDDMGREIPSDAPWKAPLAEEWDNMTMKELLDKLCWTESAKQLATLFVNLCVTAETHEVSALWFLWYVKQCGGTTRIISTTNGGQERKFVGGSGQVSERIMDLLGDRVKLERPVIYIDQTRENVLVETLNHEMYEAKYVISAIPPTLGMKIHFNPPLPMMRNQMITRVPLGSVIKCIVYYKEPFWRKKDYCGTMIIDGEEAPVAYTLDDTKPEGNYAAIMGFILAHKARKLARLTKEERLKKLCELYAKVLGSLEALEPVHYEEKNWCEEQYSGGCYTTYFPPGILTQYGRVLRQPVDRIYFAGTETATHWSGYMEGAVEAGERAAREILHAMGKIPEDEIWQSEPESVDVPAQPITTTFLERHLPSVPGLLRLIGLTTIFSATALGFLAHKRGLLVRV

MAO A = target: T2, MAO A (Homo sapiens, UniProt P21397); test: MAO A inhibition, kynuramine fluorescence assay; type: biochemical
T2 sequence (P21397 1-527): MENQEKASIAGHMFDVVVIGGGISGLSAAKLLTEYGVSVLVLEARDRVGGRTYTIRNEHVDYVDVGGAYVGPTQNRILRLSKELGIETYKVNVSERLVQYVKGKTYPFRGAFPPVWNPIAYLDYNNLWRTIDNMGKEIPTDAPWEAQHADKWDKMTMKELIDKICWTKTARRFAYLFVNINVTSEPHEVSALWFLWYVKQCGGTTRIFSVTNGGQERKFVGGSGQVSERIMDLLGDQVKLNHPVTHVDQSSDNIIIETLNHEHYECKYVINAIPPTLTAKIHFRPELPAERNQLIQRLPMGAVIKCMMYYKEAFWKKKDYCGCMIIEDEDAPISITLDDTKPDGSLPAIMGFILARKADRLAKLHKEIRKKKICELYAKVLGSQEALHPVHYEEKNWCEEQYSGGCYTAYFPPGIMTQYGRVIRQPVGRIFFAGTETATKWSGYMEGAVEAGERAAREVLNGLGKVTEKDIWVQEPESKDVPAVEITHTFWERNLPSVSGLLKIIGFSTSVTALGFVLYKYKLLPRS

[1] = Solubility in cell culture media; type: physicochemical
H3K4me2 in MCF7 cells = test: Western blot of H3K4 dimethylation in MCF7 cells; type: cell-based; settings: 24 hours incubation
LSD1 [2] = target: T3, LSD1 (Homo sapiens, UniProt O60341); test: LSD1 in-vitro inhibition, horseradish peroxidase; type: biochemical; settings: for Inhibition of LSD1, % inhibition @ conc.: @ 100 µM
LSD1 [3] = target: T3, LSD1; settings: MAO inhibitors; cited from earlier work

**Q.** For C#CCNCCCC[C@H](NC(=O)c1ccccc1)C(=O)OC(C)(C)C [1a], which “Inhibition of MAO B, % inhibition @ conc.” value (MAO B) is on record?
**A.** Its value is “n.i. ^a @ 500 µM”.

**Q.** And the “Inhibition of MAO A, % inhibition @ conc.” value (MAO A; @ 100 µM)?
**A.** Its value is “n.i. @ 100 µM”.

**Q.** Which “Inhibition of MAO B, % inhibition @ conc.” value (MAO B) does the source give for C#CCN(C)CCCC[C@H](NC(=O)OCc1ccccc1)C(=O)OCc1ccccc1 [2b] here?
**A.** Its value is “n.i. @ 500 µM”.

**Q.** Which results are given for C#CCN(C)CCCOc1cccc(NC(=O)c2ccccc2)c1 [4b]?
**A.** Solubility in cell culture media [1]: soluble; H3K4 dimethylation level (western blot) (H3K4me2 in MCF7 cells): increased levels of H3K4 dimethylation

**Q.** For C#CCNCC(O)COc1ccc(-c2ccccc2)cc1 (stereo not drawn) [5a, 3-(Prop-2-ynylamino)-2-hydroxy-1-(biphenyl-4-yloxy)propane], which “Solubility in cell culture media” value [1] is on record?
**A.** Its value is “soluble”.

**Q.** And the “H3K4 dimethylation level (western blot)” value (H3K4me2 in MCF7 cells)?
**A.** The value was “increased levels of H3K4 dimethylation”.

**Q.** With C#CCN(C)CC(O)COc1ccc(-c2ccccc2)cc1 (stereo not drawn) [5b] as the compound, how does the “Inhibition of MAO A, % inhibition @ conc.” value (MAO A; @ 10 µM) read?
**A.** The value was “n.i. @ 10 µM”.

**Q.** For C#CCN(C)CC(O)COc1ccc2ccccc2c1 (stereo not drawn) [5d], which “MAO-B inhibition in words” value (MAO B) is on record?
**A.** The value was “only limited inhibition”.

**Q.** For C#CCNCC(O)COc1ccc(-c2ccc(Br)cc2)cc1 (stereo not drawn) [5i], which “Inhibition of LSD1, % inhibition @ conc.” value (LSD1 [2]) is on record?
**A.** Its value is “n.i. @ 100 µM”.

**Q.** For C#CCNCC(O)COc1ccc(-c2ccc(Cl)cc2Cl)cc1 (stereo not drawn) [5j], which “Inhibition of LSD1, % inhibition @ conc.” value (LSD1 [2]) is on record?
**A.** Its value is “n.i. @ 100 µM”.

**Q.** For C#CCNCC(O)COc1ccc(-c2cc(Cl)cc(Cl)c2)cc1 (stereo not drawn) [5k], which “Inhibition of LSD1, % inhibition @ conc.” value (LSD1 [2]) is on record?
**A.** The value was “n.i. @ 100 µM”.

**Q.** Which “Inhibition of LSD1, % inhibition @ conc.” value (LSD1 [2]) does the source give for C#CCN(C)CC(O)COc1ccc(C(=O)OC)cc1 (stereo not drawn) [5l] here?
**A.** Its value is “n.i. @ 100 µM”.

**Q.** Which “Inhibition of LSD1, % inhibition @ conc.” value (LSD1 [2]) does the source give for C#CCNCC(O)COc1ccc(C(=O)OC)cc1 (stereo not drawn) [5m] here?
**A.** The value was “n.i. @ 100 µM”.

**Q.** With C#CCN(C)CC(O)COc1ccc(CC(=O)OC)cc1 (stereo not drawn) [5n] as the compound, how does the “Inhibition of LSD1, % inhibition @ conc.” value (LSD1 [2]) read?
**A.** The value was “n.i. @ 100 µM”.

**Q.** With C#CCNCC(O)COc1ccc(CC(=O)OC)cc1 (stereo not drawn) [5o] as the compound, how does the “Inhibition of LSD1, % inhibition @ conc.” value (LSD1 [2]) read?
**A.** Its value is “n.i. @ 100 µM”.

**Q.** With C#CCN(C)CC(O)COc1ccc(CCC(=O)OC)cc1 (stereo not drawn) [5p] as the compound, how does the “Inhibition of LSD1, % inhibition @ conc.” value (LSD1 [2]) read?
**A.** The value was “n.i. @ 100 µM”.

**Q.** With C#CCNCC(O)COc1ccc(C(N)=O)cc1 (stereo not drawn) [5q] as the compound, how does the “Inhibition of LSD1, % inhibition @ conc.” value (LSD1 [2]) read?
**A.** The value was “n.i. @ 100 µM”.

**Q.** For C#CCN(C)CC(O)COc1ccc(C(N)=O)cc1 (stereo not drawn) [5r], which “Inhibition of LSD1, % inhibition @ conc.” value (LSD1 [2]) is on record?
**A.** Its value is “n.i. @ 100 µM”.

**Q.** What does the source list for C#CCNCC(O)CNc1ccc(-c2ccccc2)cc1 (stereo not drawn) [6a]?
**A.** LSD1 inhibition in words (LSD1 [2]): inactive; Inhibition of LSD1, % inhibition @ conc. (LSD1 [2]): n.i. @ 100 µM

**Q.** Which “LSD1 inhibition in words” value (LSD1 [2]) does the source give for C#CCNCC(O)CN(C)c1ccc(-c2ccccc2)cc1 (stereo not drawn) [6b, 1-(N-Methyl-4-phenylanilino)-3-(prop-2-ynylamino)propan-2-ol] here?
**A.** The value was “inactive”.

**Q.** And the “Inhibition of LSD1, % inhibition @ conc.” value (LSD1 [2])?
**A.** Its value is “n.i. @ 100 µM”.

**Q.** Which “Inhibition of LSD1, % inhibition @ conc.” value (LSD1 [2]) does the source give for OC(CNC1CC1)COc1ccc(-c2ccccc2)cc1 (stereo not drawn) [7a] here?
**A.** Its value is “n.i. @ 100 µM”.

**Q.** With OC(CNC1CC1)COc1ccc2ccccc2c1 (stereo not drawn) [7b] as the compound, how does the “Inhibition of LSD1, % inhibition @ conc.” value (LSD1 [2]) read?
**A.** Its value is “n.i. @ 100 µM”.

**Q.** For C#CCN(C)[C@H](C)Cc1ccccc1 [deprenyl], which “Inhibitory activity on LSD1” value (LSD1 [3]) is on record?
**A.** Its value is “millimolar range”.

**Q.** For C#CCN(C)Cc1ccccc1 [pargyline], which “Inhibitory activity on LSD1” value (LSD1 [3]) is on record?
**A.** Its value is “millimolar range”.

Source: article PMC4361900 (Journal of medicinal chemistry, 2013)
